Measurements reported in patent US7714006B1, “Methods of modifying the bioavailability of metaxalone” (King Pharmaceuticals Research & Development, Inc., priority 2001, dated 2010).

Experiment: Effects of age and gender on PK parameters, 2×400 mg data from studies 103 and 105, fed and fasted
Conditions: human, in vivo
From the text: This analysis considers the effects of age and gender on three pharmacokinetic (PK) parameters of metaxalone under fed and fasted conditions. The three parameters are: • Cmax: the observed maximum plasma concentration (ng/mL); • AUC(last): the area under the curve (AUC) to the last quantifiable concentration, as measured by the trapezoidal rule (ng-hr/mL); • AUC(inf): the AUC extrapolated to infinity (ng-hr/mL).
Because the distributions of these parameters tend to be skewed, and in accordance with generally accepted practice, all analyses are carried out after computing the natural logarithm (ln) of the values of the PK parameters from individual subjects.
The report is based primarily on two similarly designed studies in which PK parameters were determined under fed and fasted conditions for the 2×400 mg dose of metaxalone: • Study AN151607-103 (hereafter referred to as the 103 study): a four-period, randomized crossover trial with treatment conditions 2×400 mg with food, 2×400 mg without food, 1×800 mg with food, 1×800 mg without food; and • Study ELN151607-105 (hereafter referred to as the 105 study): a two-period, randomized crossover trial with treatment conditions 2×400 mg with food and 2×400 mg without food.
Using the 2×400 mg data from studies 103 and 105, Section 2.2 presents the results of analyses of the effects of age on the fed values of Cmax, AUC(last), and AUC(inf). Section 2.3 similarly reports the results of analyses of fasted values of these parameters using the 2×400 mg data from these two studies. Section 2.4 repeats the analyses of Sections 2.2 and 2.3 using the data from the 1×800 mg treatment of study 103, in combination with the 2×400 mg data from study 105. Finally, Sections 2.5 and 2.6 report the results of similar analyses using the data from studies 101 and 106, respectively.
The primary results are based on the results of linear regression models investigating the effects of age on each PK parameter. Descriptive analyses reporting parametric (Pearson) and nonparametric (Spearman) correlation coefficients between age and each PK parameter are also provided. The Pearson correlation coefficient measures the extent of the linear association between two variables and is most appropriate when the data are approximately bivariate normally distributed with no outliers. The Spearman correlation coefficient is based on the ranks of the variables. It is less sensitive to outliers, but is often also a less sensitive measure of the strength of association.
In study 103, 59 subjects were administered the 2×400 mg dose under fed conditions. The mean age was 26.1 years, with a range from 18 to 50 years. (A total of 64 subjects began the study, of which the average age was 25.6 years. Five subjects were not included in the pharmacokinetic analysis.) In study 105, 44 subjects were administered the 2×400 mg dose under fed conditions. The mean age in study 105 was 56.0 years; with a range from 18 to 81 years.
First, in the combined group of 59+44=103 subjects, Pearson and Spearman correlation coefficients between age and each of the three PK parameters were computed. The correlation coefficients and two-sided p-values from the test of the null hypothesis of no association are shown below in TABLE IIIa:
Linear regression models using the natural logarithm of each of the three PK parameters as the dependent variable and age as the independent variable were fitted in order to estimate the magnitude of the associations with age.
In study 103, the same 59 subjects were administered the 2×400 mg dose under fasted conditions. Similarly, the 44 subjects from study 105 were administered the 2×400 mg dose under fasted conditions.
First, in the combined group of n=103 subjects, Pearson and Spearman correlations between age and each of the three PK parameters were computed. The correlation coefficients and two-sided p-values from the test of the null hypothesis of no association are shown below in TABLE IVa: […]

Percentage increase in AUC(inf) from age 20 to age 70 (both): 74%
Percentage increase in AUC(inf), 70-year-old vs 20-year-old (both): 95%
Percentage increase in AUC(last) from age 20 to age 70 (both): 78%
Percentage increase in AUC(last), 70-year-old vs 20-year-old (both): 98%
Percentage increase in Cmax from age 20 to age 70 (both): 84%
Percentage increase in Cmax, 70-year-old vs 20-year-old (both): 103%
Pearson correlation coefficients age vs PK parameters, range in magnitude (female): 0.49-0.60
Compound: Cc1cc(C)cc(OCC2CNC(=O)O2)c1 (stereo not shown) [metaxalone, 5-[(3,5-dimethylphenoxy)methyl]-2 oxazolidinone]
